Entries after “also recorded” stand apart in the source; their conditions may differ. Where two headings read alike, the source gives them in different places.
Legend:
[1] = tested on: S180 sarcoma; conditions: for Tumor inhibiting rate % / Tumor weight / 0 d weight / 11 d weight without tumor: i.v., S180 sarcoma-bearing mice
Text: (§1) (1) Sample: 3,4,5,4′-tetramethoxyl-α,β-diphenylethane-3′-O-sodium sulphate (AS) provided by Zhejiang Cell Biomedical Research Co., Ltd., and prepared by the process in Example One. Dissolved by physiological saline for the concentration needed.
(2) Cisplatin: Cisplatin for injection (DDP), Qilu Pharmaceutical Co., Ltd. Batch No.: 5120282DC. Dissolved by physiological saline for preparation.
(3) Control product: Cyclophosphamide for injection (CTX), Jiangsu Hengrui Pharmaceutical Inc. Co. Batch No.: 04123021 Dissolved by physiological saline for preparation.
(§2) (1) KM mouse bearing S180 sarcoma.
(2) 70 KM mice, female, weighting 18-22 g, provided by Zhejing College of Traditional Chinese Medicine.
(1) Drawing ascites under aseptic condition from mouse bearing S180 sarcoma, diluting with physiologic saline 1:3, giving subcutaneous inoculation in the armpit of the right forelimb of the KM mice with 0.2 ml each; dividing the mice into 7 groups randomly the next day, 10 in each group.
(§3) (2) Administering drug to the mice by weight the third day of inoculation, intravenous administration 0.5 ml/20 g […], by weight, and putting them to death on the 11th day after inoculation, weighing the tumor and calculating the rate of tumor inhibition.
(§4) (3) dosage (mg/kg/d) and means of administration:
(§5) AS: 50 mg/kg, tail vein injection
(§6) AS: 100 mg/kg, tail vein injection
(§7) AS: 200 mg/kg, tail vein injection
DDP: 1 mg/kg, tail vein injection
AS+DDP: 50 mg/kg+1 mg/kg, tail vein injection
(§8) CTX: 30 mg/kg, tail vein injection
(§9) Setting up another blank control group, tail vein injection of 0.9% NaCl 0.5 ml.
(§10) (4) Judging the result with the following formula: […]

[2] = tested on: Lewis lung cancer; assay: Joint administration of AS and DDP, murine model of Lewis lung cancer (Example Five); assay type: in vivo, C57BL/6J mice; conditions: for Tumor inhibiting rate % / Tumor weight: i.v., mice bearing Lewis lung cancer
Text: (1) Sample: 3,4,5,4′-tetramethoxyl-α,β-diphenylethane-3′-O-sodium sulphate (AS), raw material medicine, provided by Zhejiang Cell Biomedical Research Co., Ltd., and prepared by the process in Example One. Batch No.: 061025. Dissolved by physiological saline for the concentration needed.
(2) Cisplatin: Cisplatin for injection (DDP), Qilu Pharmaceutical Co., Ltd. Batch No.: 5120282DC; Dissolved by physiological saline for preparation
(3) Control product: Cyclophosphamide for injection (CTX), Jiangsu Hengrui Pharmaceutical Inc. Co. Batch No.: 04123021. Dissolved by physiological saline for preparation.
(1) C57BL/6J mouse bearing Lewis lung cancer
(2) 70 C57BL/6J mice, female, weighing 17-21 g. Provided by the animal house of Zhejiang Cell Biomedical Research Co., Ltd.
(1) Taking tumor from C57BL/6J mouse under aseptic condition, grinding and diluting it by physiological saline 1:3 (weight:volume), and giving hypodermic inoculation 0.2 ml per mouse in the armpit of the right forelimb of each mouse. dividing the mice into 7 groups randomly the next day, 10 in each group.
(2) After inoculation, waiting till the tumor has grown to the accessible size, administering medicine according to body weight, 0.5 ml/20 g intravenous, for 11 days, putting the mice to death on the 19th after inoculation, taking out and weighing the tumor, and calculating the tumor inhibiting rate.
as §10

[3] = Water solubility; assay type: physicochemical
[4] = tested on: S180 sarcoma; conditions: for 0 d weight / 11 d weight without tumor / Tumor inhibiting rate % / Tumor weight: i.v., S180 sarcoma-bearing mice
Text: as §1
(2) Control product: Cyclophosphamide for injection (CTX), Jiangsu Hengrui Pharmaceutical Inc. Co. Batch No.: 04123021 Dissolved by physiological saline for preparation.
as §2
(2) 50 KM mice, female, weighting 18-22 g, provided by Zhejing College of Traditional Chinese Medicine.
(1) Drawing ascites under aseptic condition from mouse bearing S180 sarcoma, diluting with physiologic saline 1:3, giving subcutaneous inoculation in the armpit of the right forelimb of the KM mice with 0.2 ml each; dividing the mice into 5 groups randomly the next day, 10 in each group.
as §3, §4, §5, §6, §7, §8, §9, §10

[5] = tested on: KunMing (KM) mice; assay: LD50 determination, tail vein injection; assay type: in vivo; conditions: for Death rate in total % Total / Death rate in total % ♀ / Death rate in total % ♂ / Deaths days 1 ♀ / Deaths days 1 ♂ / Deaths days 2 ♀ / Deaths days 2 ♂ / Deaths days 3 ♀ / Deaths days 3 ♂ / Deaths days 4 ♀ / Deaths days 4 ♂ / Deaths hours 0-4 ♀ / Deaths hours 0-4 ♂: tail vein injection
Procedure: (§11) 1. Experimental animal: KunMing (KM) mice, provided by Shanghai Slac Laboratory Animal Co., Ltd., half and half of female and male, 6 groups, ten in each group, marked by bitter acid.
(§12) 2. […] Preparing medical solution of equal ratio: dissolving with 0.9% NaCl to prepare the medical solution with the concentration of 336 mg/7 ml, 316.96 mg/7 ml, 299.32 mg/7 ml, 282.52 mg/7 ml, 266.84 mg/7 ml, 252 mg/7 ml.
(§13) 3. Dosage for administration: with 0.5 ml/20 g bottom up.
(§14) 4. Means of administration: tail vein injection
(§15) 5. Experimental method: observing at 0.25 h, 0.5 h, 1 h, 2 h, 4 h, 24 h respectively after administration; then observing once every day 14 days; putting the mice still alive to death on the 15th day and recording the death rate.

[6] = LD50 determination, tail vein injection; assay type: in vivo, mice; conditions: both sexes, KunMing (KM), mouse, in vivo, intravenous, KM mice, tail vein injection
Procedure: as §11, §12, §13, §14, §15

## N.N.[Cl][Pt][Cl] [DDP, Cisplatin, reference compound]
[1]; Dosage 30 mg/kg
  Tumor inhibiting rate %: 70%
  Tumor weight: 0.88 ± 0.50 g
[2]; Dosage 1 mg/kg
  Tumor inhibiting rate %: 46.4%
  Tumor weight: 2.52 ± 0.80 g

## COc1ccc(CCc2cc(OC)c(OC)c(OC)c2)cc1OS(=O)(=O)[O-].[Na+] [AS, 3,4,5,4′-tetramethoxyl-α,β-diphenylethane-3′-O-sodium sulphate]
[1]; Dosage 50 mg/kg
  0 d weight: 21.06 ± 0.82 g
  11 d weight without tumor: 25.89 ± 3.32 g
  Tumor inhibiting rate %: 44%
  Tumor weight: 1.63 ± 1.43 g
[1]; Dosage 100 mg/kg
  0 d weight: 20.46 ± 1.03 g
  11 d weight without tumor: 28.42 ± 4.13 g
  Tumor inhibiting rate %: 29%
  Tumor weight: 2.07 ± 1.03 g
[1]; Dosage 200 mg/kg
  0 d weight: 20.45 ± 0.86 g
  11 d weight without tumor: 27.10 ± 2.44 g
  Tumor inhibiting rate %: 54%
  Tumor weight: 1.34 ± 0.53 g
[1]; joint administration with DDP
  effect in inhibiting S180 tumors (in words): fine coordinating effect; also recorded: excellent coordinating effect
[3]
  water solubility (in words): good water solubility
[4]; Dosage 50 mg/kg
  0 d weight: 21.06 ± 0.82 g
  11 d weight without tumor: 25.89 ± 3.32 g
  Tumor inhibiting rate %: 44%
  Tumor weight: 1.63 ± 1.43 g
[4]; Dosage 100 mg/kg
  0 d weight: 20.46 ± 1.03 g
  11 d weight without tumor: 28.42 ± 4.13 g
  Tumor inhibiting rate %: 29%
  Tumor weight: 2.07 ± 1.03 g
[4]; Dosage 200 mg/kg
  0 d weight: 20.45 ± 0.86 g
  11 d weight without tumor: 27.10 ± 2.44 g
  Tumor inhibiting rate %: 54%
  Tumor weight: 1.34 ± 0.53 g
[4]; result analysis
  inhibitory effect on S180 tumors (in words): excellent inhibitory effect
[5]; 900 mg/kg
  Death rate in total % Total: 0%
  Death rate in total % ♀: 0%
  Death rate in total % ♂: 0%
  Deaths days 1 ♀: 0
  Deaths days 1 ♂: 0
  Deaths days 2 ♀: 0
  Deaths days 2 ♂: 0
  Deaths days 3 ♀: 0
  Deaths days 3 ♂: 0
  Deaths days 4 ♀: 0
  Deaths days 4 ♂: 0
  Deaths hours 0-4 ♀: 0
  Deaths hours 0-4 ♂: 0
[5]; 953 mg/kg
  Death rate in total % Total: 0%
  Death rate in total % ♀: 0%
  Death rate in total % ♂: 0%
  Deaths days 1 ♀: 0
  Deaths days 1 ♂: 0
  Deaths days 2 ♀: 0
  Deaths days 2 ♂: 0
  Deaths days 3 ♀: 0
  Deaths days 3 ♂: 0
  Deaths days 4 ♀: 0
  Deaths days 4 ♂: 0
  Deaths hours 0-4 ♀: 0
  Deaths hours 0-4 ♂: 0
[5]; 1009 mg/kg
  Death rate in total % Total: 40%
  Death rate in total % ♀: 20%
  Death rate in total % ♂: 60%
  Deaths days 1 ♀: 0
  Deaths days 1 ♂: 0
  Deaths days 2 ♀: 0
  Deaths days 2 ♂: 0
  Deaths days 3 ♀: 0
  Deaths days 3 ♂: 0
  Deaths days 4 ♀: 0
  Deaths days 4 ♂: 0
  Deaths hours 0-4 ♀: 1
  Deaths hours 0-4 ♂: 3
[5]; 1069 mg/kg
  Death rate in total % Total: 80%
  Death rate in total % ♀: 80%
  Death rate in total % ♂: 80%
  Deaths days 1 ♀: 0
  Deaths days 1 ♂: 0
  Deaths days 2 ♀: 0
  Deaths days 2 ♂: 0
  Deaths days 3 ♀: 0
  Deaths days 3 ♂: 0
  Deaths days 4 ♀: 0
  Deaths days 4 ♂: 0
  Deaths hours 0-4 ♀: 4
  Deaths hours 0-4 ♂: 4
[5]; 1132 mg/kg
  Death rate in total % Total: 60%
  Death rate in total % ♀: 60%
  Death rate in total % ♂: 60%
  Deaths days 1 ♀: 0
  Deaths days 1 ♂: 0
  Deaths days 2 ♀: 0
  Deaths days 2 ♂: 0
  Deaths days 3 ♀: 0
  Deaths days 3 ♂: 0
  Deaths days 4 ♀: 0
  Deaths days 4 ♂: 0
  Deaths hours 0-4 ♀: 3
  Deaths hours 0-4 ♂: 3
[5]; 1200 mg/kg
  Death rate in total % Total: 70%
  Death rate in total % ♀: 40%
  Death rate in total % ♂: 100%
  Deaths days 1 ♀: 0
  Deaths days 1 ♂: 0
  Deaths days 2 ♀: 0
  Deaths days 2 ♂: 0
  Deaths days 3 ♀: 0
  Deaths days 3 ♂: 0
  Deaths days 4 ♀: 0
  Deaths days 4 ♂: 0
  Deaths hours 0-4 ♀: 2
  Deaths hours 0-4 ♂: 5
[5]; conclusion from LD50
  toxicity (in words): very low
[6]; observed 14 days, read-out: LD50
  LD50 at 14 days: 1080 mg/kg
[6]; read-out: LD50 (Feiller correction) 95% confidence interval
  LD50 at 14 days: 1030 to 1130 mg/kg
[2]; Dosage 50 mg/kg
  Tumor inhibiting rate %: 35.5%
  Tumor weight: 3.03 ± 0.55 g
[2]; Dosage 100 mg/kg
  Tumor inhibiting rate %: 36.4%
  Tumor weight: 2.99 ± 0.50 g
[2]; Dosage 200 mg/kg
  Tumor inhibiting rate %: 52.1%
  Tumor weight: 2.25 ± 0.75 g
[2]; alone
  inhibiting the tumor in murine model of Lewis lung cancer (in words): quite effective
[2]; joint administration with DDP
  inhibiting the tumors in murine model of Lewis lung cancer (in words): certain coordinated effect

— US7632863B2, “3,4,5,4′-tetramethoxyl-α,β-diphenylethane-3′-O-sodium sulphate and its use” (The Jian Cell Biomedical Research Co., Ltd., priority 2007, dated 2009)
